Assay results reported in article PMC8342319, “Predicting blood-to-plasma concentration ratios of drugs from chemical structures and volumes of distribution in humans” (Molecular Diversity, 2021).
Where two headings read alike, the source gives them in different places.

Experiments:
[1] = human, cited from earlier work
[2] = human, intravenous, cited from earlier work
[3] = human
plasma protein = details: cited from earlier work; for fp_Human (free fraction in plasma): human
[4] = intravenous, median if multiple values were reported, ref numbers in Table S1
[5] = median if multiple values were reported, ref numbers in Table S1
[6] = collected value, median if multiple values were reported, ref: Table S1
[7] = human plasma free fraction, median if multiple values were reported, ref numbers in Table S1
[8] = median if multiple values reported, Reference of Table S1
[9] = intravenous, median if multiple values reported, Reference of Table S1

| SMILES | in vivo Vd_(L/kg)_Human [1, 4] [L/kg] | in vivo CL_(L/hr/kg)_Human [2, 5] [L/h/kg] | in vivo MRT_(hr)_Human [3] [h] | further results |
| --- | --- | --- | --- | --- |
| Cc1[nH]cnc1CN1CCc2c(c3ccccc3n2C)C1=O [Alosetron] | 1.100 | 0.522 | 2.107 | – |
| Cc1cc(=O)n(-c2ccccc2)n1C [Antipyrine] | 0.820 | 0.038 | 21.354 | – |
| Cn1c(=O)c2c(ncn2C)n(C)c1=O [Caffeine] | 0.680 | 0.084 | 8.095 | – |
| COCc1c(C(C)C)nc(C(C)C)c(/C=C/[C@@H](O)C[C@@H](O)CC(=O)O)c1-c1ccc(F)cc1 [Cerivastatin] | 0.330 | 0.174 | 1.897 | – |
| CN(C)CCCN1c2ccccc2Sc2ccc(Cl)cc21 [Chlorpromazine] | 10.500 | 0.960 | 10.938 | – |
| NS(=O)(=O)c1cc(C2(O)NC(=O)c3ccccc32)ccc1Cl (stereo not shown) [Chlorthalidone] | 3.900 | 0.046 | 43.333 | – |
| CN/C(=N/CCSCc1nc[nH]c1C)NC#N [Cimetidine] | 1.200 | 0.492 | 2.469 | – |
| CN(C)CCCN1c2ccccc2CCc2ccc(Cl)cc21 [Clomipramine] | 13.000 | 0.492 | 26.423 | – |
| O=c1ccc2ccccc2o1 [Coumarin] | 2.200 | 1.020 | 2.157 | – |
| Nc1ccc(S(=O)(=O)c2ccc(N)cc2)cc1 [Dapsone] | 0.830 | – | 28.819 | fp_Human (free fraction in plasma) (plasma protein; [6]): 0.315 |
| Cc1onc(-c2c(Cl)cccc2Cl)c1C(=O)N[C@@H]1C(=O)N2[C@@H]1SC(C)(C)[C@@H]2C(=O)O [Dicloxacillin] | 0.110 | 0.108 | 0.917 | – |
| C[C@H]1O[C@@H](O[C@H]2[C@@H](O)C[C@H](O[C@H]3[C@@H](O)C[C@H](O[C@H]4CC[C@@]5(C)[C@H](CC[C@@H]6[C@@H]5C[C@@H](O)[C@]5(C)[C@@H](C7=CC(=O)OC7)CC[C@]65O)C4)O[C@@H]3C)O[C@@H]2C)C[C@H](O)[C@@H]1O [Digoxin] | 4.100 | 0.102 | 40.196 | – |
| CN(C)CCC=C1c2ccccc2COc2ccccc21 [Doxepin] | 12.000 | 0.840 | 14.286 | – |
| CC[C@@H](CO)NCCN[C@@H](CC)CO [Ethambutol] | 1.700 | 0.600 | 2.833 | – |
| CN1CCN(c2c(F)cc3c(=O)c(C(=O)O)cn(CCF)c3c2F)CC1 [Fleroxacin] | 1.550 | 0.144 | 10.764 | – |
| OC(Cn1cncn1)(Cn1cncn1)c1ccc(F)cc1F [Fluconazole] | 0.750 | 0.019 | 40.323 | – |
| CN[C@@H]1CCc2[nH]c3ccc(C(N)=O)cc3c2C1 [Frovatriptan] | 3.600 | 0.150 | 24.000 | – |
| Nc1nc(O)c2ncn(COC(CO)CO)c2n1 [Ganciclovir] | 1.000 | 0.240 | 3.623 | – |
| CNC(C)C1CCC(N)C(OC2C(N)CC(N)C(OC3OCC(C)(O)C(NC)C3O)C2O)O1 (stereo not shown) [Gentamicin] | – | – | 5.500 | fp_Human (free fraction in plasma) (plasma protein; plasma): 1.000 |
| COc1ccc(Cl)cc1C(=O)NCCc1ccc(S(=O)(=O)NC(=O)NC2CCCCC2)cc1 [Glyburide] | 0.080 | – | 1.626 | fp_Human (free fraction in plasma) (plasma protein; [6]): 0.021 |
| CN1C2CCCC1CC(NC(=O)c1nn(C)c3ccccc13)C2 (stereo not shown) [Granisetron] | 3.700 | 0.546 | 6.777 | – |
| O=C(CCCN1CCC(O)(c2ccc(Cl)cc2)CC1)c1ccc(F)cc1 [Haloperidol] | 17.500 | – | 37.393 | fp_Human (plasma protein; [7]): 0.100; fp_Human (free fraction in plasma) (plasma protein; [6]): 0.100 |
| NNc1nncc2ccccc12 [Hydralazine] | 1.500 | 5.100 | 0.294 | fp_Human (free fraction in plasma) (plasma protein; [6]): 0.120 |

| SMILES | in vivo Vd_(L/kg)_Human [1, 4] [L/kg] | in vivo CL_(L/hr/kg)_Human [2, 5] [L/h/kg] | in vivo MRT_(hr)_Human [3] [h] | further results |
| --- | --- | --- | --- | --- |
| CC(C)(C)NC(=O)[C@@H]1CN(Cc2cccnc2)CCN1C[C@@H](O)C[C@@H](Cc1ccccc1)C(=O)N[C@H]1c2ccccc2C[C@H]1O [Indinavir] | 0.820 | 1.080 | 0.759 | – |
| CNC1(c2ccccc2Cl)CCCCC1=O (stereo not shown) [Ketamine] | – | – | 2.544 | fp_Human (free fraction in plasma) (plasma protein; [6]): 0.770; in vivo Vd_(L/kg)_Human ([1]; in vivo, iv): 2.900 L/kg |
| C[C@H]1COc2c(N3CCN(C)CC3)c(F)cc3c(=O)c(C(=O)O)cn1c23 [Levofloxacin] | 4.250 | 0.114 | 37.281 | – |
| CC(=O)NC[C@H]1CN(c2ccc(N3CCOCC3)c(F)c2)C(=O)O1 [Linezolid] | 0.580 | 0.117 | 5.370 | fp_Human (plasma protein; [7]): 0.690 |
| CCCCc1nc(Cl)c(CO)n1Cc1ccc(-c2ccccc2-c2nn[nH]n2)cc1 [Losartan] | 0.370 | 0.489 | 0.752 | – |
| CC(C)Oc1ccccc1N1CCN(Cc2cccc(C(=O)N3CCCCC3)c2)CC1 [Mazapertine] | 1.540 | 0.370 | 4.160 | – |
| CN(C)C(=N)N=C(N)N [Metformin] | 0.640 | 0.444 | 1.441 | fp_Human (plasma protein; [7]): 1.000 |
| CCN(CC)CCNC(=O)c1cc(Cl)c(N)cc1OC [Metoclopramide] | 3.200 | 0.342 | 9.357 | – |
| Cc1ccccc1N1C(=O)c2cc(S(N)(=O)=O)c(Cl)cc2NC1C (stereo not shown) [Metolazone] | 1.600 | 0.084 | 19.048 | – |
| Cc1ncc([N+](=O)[O-])n1CCO [Metronidazole] | 0.400 | 0.051 | 7.843 | – |
| CC(C)(O)c1ccccc1CC[C@@H](SCC1(CC(=O)O)CC1)c1cccc(/C=C/c2ccc3ccc(Cl)cc3n2)c1 [Montelukast] | 0.150 | 0.041 | 3.676 | – |
| COC(=O)C1=C(C)NC(C)=C(C(=O)OCC(C)C)C1c1ccccc1[N+](=O)[O-] (stereo not shown) [Nisoldipine] | 5.500 | 0.900 | 6.111 | – |
| O=C1CN=C(c2ccccc2)c2cc([N+](=O)[O-])ccc2N1 [Nitrazepam] | – | 0.052 | 32.946 | in vivo Vd_(L/kg)_Human ([1]; in vivo, iv): 1.700 L/kg |
| O=C1CN(/N=C/c2ccc([N+](=O)[O-])o2)C(=O)N1 [Nitrofurantoin] | 0.570 | – | 0.979 | fp_Human (free fraction in plasma) (plasma protein; [6]): 0.380 |
| CNCCC=C1c2ccccc2CCc2ccccc21 [Nortriptyline] | 22.000 | 0.516 | 36.667 | – |
| CC1COc2c(N3CCN(C)CC3)c(F)cc3c(=O)c(C(=O)O)cn1c23 (stereo not shown) [Ofloxacin] | 1.600 | 0.150 | 10.667 | – |
| Cc1nccn1CC1CCc2c(c3ccccc3n2C)C1=O (stereo not shown) [Ondansetron] | 1.800 | 0.354 | 5.172 | – |
| CC(=O)O[C@H]1C[C@@H]2CC[C@@H]3[C@H](CC[C@@]4(C)[C@H]3C[C@H]([N+]3(C)CCCCC3)[C@@H]4OC(C)=O)[C@@]2(C)C[C@@H]1[N+]1(C)CCCCC1 [Pancuronium] | – | – | 2.222 | fp_Human (free fraction in plasma) (plasma protein; [6]): 0.090; in vivo Vd_(L/kg)_Human ([1]; in vivo, iv): 0.200 L/kg |
| CCC1(c2ccccc2)C(=O)NC(=O)NC1=O [Phenobarbital] | – | – | 150.000 | fp_Human (plasma protein): 0.505; in vivo Vd_(L/kg)_Human ([1]; in vivo, iv): 0.540 L/kg; in vivo CL_(L/hr/kg)_Human [2, 8]: 0.0036 L/h/kg |
| CCN1CCC[C@H]1CNC(=O)c1c(OC)ccc(Br)c1OC [Remoxipride] | – | – | 6.373 | in vivo Vd_(L/kg)_Human [1, 9]: 0.650 L/kg; in vivo CL_(L/hr/kg)_Human [2, 8]: 0.102 L/h/kg |
| O=C(O)CCCCO/N=C(/c1cccnc1)c1cccc(C(F)(F)F)c1 [Ridogrel] | – | – | 6.825 | in vivo Vd_(L/kg)_Human [1, 9]: 0.430 L/kg; in vivo CL_(L/hr/kg)_Human [2, 8]: 0.063 L/h/kg |
| CCN(CC)CCNC(=O)c1ccc(NS(C)(=O)=O)cc1 [Sematilide] | – | – | 3.694 | in vivo Vd_(L/kg)_Human [1, 9]: 0.820 L/kg; in vivo CL_(L/hr/kg)_Human [2, 8]: 0.222 L/h/kg |
| Cc1nnc2n1-c1ccc(Cl)cc1C(c1ccccc1Cl)=NC2 [Triazolam] | – | – | 3.222 | fp_Human (plasma protein): 0.100; in vivo Vd_(L/kg)_Human ([1]; in vivo, iv): 0.580 L/kg |
